# Reference: patent US10457707B2, “Substituted urea depsipeptide analogs as activators of the CLPP endopeptidase” (priority 2015, dated 2019)
# Like-named read-outs stand apart in the source and are kept apart here. *1 amine or outer side, *2 acyl side, *3 side chain or, on linkers, in order; H or OH if unused. Where a SMILES comes first, the peptide text is derived from it. Bridges are numbered along the chain shown (N, C = ends). [ ]: non-standard residue; d: D form. The star is where a group is joined. Phe(3,5-F2) = N[C@@H](Cc1cc(F)cc(F)c1)C(=O)O; Morpholine(3S-CO) = O=C(O)[C@@H]1COCCN1; Pro(4S-Me) = C[C@@H]1CN[C@H](C(=O)O)C1; NH(4-Cl-2-F-phenyl) = Fc1cc(Cl)ccc1N*; Pro(4R-Me) = C[C@H]1CN[C@H](C(=O)O)C1; NMeaThr = CN[C@H](C(=O)O)[C@H](C)O; Hyp = O=C(O)[C@@H]1C[C@@H](O)CN1; NH(4-Et-phenyl) = CCc1ccc(N*)cc1; NMeT = CN[C@H](C(=O)O)[C@@H](C)O; Heptenoyl(2E) = CCCC/C=C/C(=O)*; NH(4-Me-phenyl) = Cc1ccc(N*)cc1; aThr = C[C@H](O)[C@H](N)C(=O)O; Pip = O=C(O)[C@@H]1CCCCN1; NMeA = CN[C@@H](C)C(=O)O; X4 = c1cc2c(cc1N*)CCC2; X8 = c1cc2c(cc1N*)CCO2; X6 = Cc1cc(C)cc(N*)c1; CO = O=C([*:1])[*:2]; X7 = CC/C=C/C(=O)*
# How the values were obtained:
# [1] = system: Staphylococcus aureus, USA 300; assay: Minimal inhibitory concentration assay; type: cell-based; settings: USA300, read-out: Minimal Inhibitory Concentrations S. aureus USA 300
# Summary of the method: (§1)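 Paired MICs against USA 300 and its ClpP-inactivated counterpart test whether killing runs through ClpP. All strains: two-fold broth dilutions from 200 μM final, ~10^5 cfu/mL inoculum, overnight at 37 °C in air, lowest growth-free concentration read by eye.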
# [2] = system: Staphylococcus aureus, USA 300 wherein ClpP is inactivated; assay: Minimal inhibitory concentration assay; type: cell-based
# Summary of the method: as §1
# Sa-ClpP = molecular target: T1, Sa-ClpP (Staphylococcus aureus, UniProt Q2G036); assay: Sa-ClpP casein-BODIPY ClpP activation assay, method variant not marked in Table 5; type: biochemical, S. aureus
# T1 construct: made in house; host or cells: E. coli BL21(DE3)
# T1 sequence (Q2G036 1-195): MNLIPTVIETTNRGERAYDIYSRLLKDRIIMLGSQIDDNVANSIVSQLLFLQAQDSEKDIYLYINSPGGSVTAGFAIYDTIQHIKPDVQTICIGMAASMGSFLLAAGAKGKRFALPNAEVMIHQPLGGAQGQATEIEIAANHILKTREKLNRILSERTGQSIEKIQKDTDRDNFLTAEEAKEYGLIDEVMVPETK
# Summary of the method: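 EC50 for activation derived by dose-response fitting of casein digestion rates, run in triplicate. Conditions: 37° C, pH 8 buffer with 200 mM KCl and 1 mM TCEP, 10 μM Sa-ClpP, 25 μg/ml BODIPY FL casein, compound at 0-1000 μM; signal at 485/528 nm followed 45 min.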
# [3] = system: Enterococcus faecalis, ATCC 33186; assay: Minimal inhibitory concentration assay (microbroth dilution); type: cell-based
# Summary of the method: as §1
# [4] = values without ** or † mark, assay variant not stated, read-out: ClpP Activation EC50
# [5] = Enterococcus faecalis, ATCC33186; read-out: Minimal Inhibitory Concentrations E. faecalis ATCC 33186
# [6] = Enterococcus faecalis, ATCC33186, read-out: Minimal Inhibitory Concentrations E. faecalis ATCC 33186
SMILES,MIC [1],Minimal Inhibitory Concentrations S. aureus USA 300 ΔClpP [2],EC50 (Sa-ClpP; [4]),"MIC [3, 5]","MIC [3, 6]",EC50 (Sa-ClpP)
"CCc1ccc(NC(=O)N[C@@H](Cc2cc(F)cc(F)c2)C(=O)N[C@@H]2C(=O)N3CCC[C@H]3C(=O)N(C)[C@@H]([C@H](C)O)C(=O)N[C@@H](C)C(=O)N3C[C@@H](C)C[C@H]3C(=O)O[C@H]2C)cc1 [Compound 204, (S)-3-(3,5-difluorophenyl)-2-(3-(4-ethylphenyl)ureido)-N-((2S,6S,9S,11aS,17S,18S,20aS)-9-((S)-1-hydroxyethyl)-2,6,10,18-tetramethyl-5,8,11,16,20-pentaoxohexadecahydro-1H,5H,16H-dipyrrolo[2,1-c:2′,1′-l][1]oxa[4,7,10,13]tetraazacyclohexadecin-17-yl)propanamide] ({NH(4-Et-phenyl)-CO}-[Phe(3,5-F2)][aThr]P[NMeaThr]A[Pro(4S-Me)]; ester 2-C)",0.098 µM,100 µM,0.35 ± 0.01 µM,0.195 µM,,
"Cc1ccc(NC(=O)N[C@@H](Cc2cc(F)cc(F)c2)C(=O)N[C@@H]2C(=O)N3C[C@H](O)C[C@H]3C(=O)N(C)[C@@H](C)C(=O)N[C@@H](C)C(=O)N3C[C@@H](C)C[C@H]3C(=O)O[C@H]2C)cc1 [Compound 214, (S)-3-(3,5-difluorophenyl)-N-((2S,6S,9S,11aS,13R,17S,18S,20aS)-13-hydroxy-2,6,9,10,18-pentamethyl-5,8,11,16,20-pentaoxohexadecahydro-1H,5H,16H-dipyrrolo[2,1-c:2′,1′-l][1]oxa[4,7,10,13]tetraazacyclohexadecin-17-yl)-2-(3-(p-tolyl)ureido)propanamide] ({NH(4-Me-phenyl)-CO}-[Phe(3,5-F2)][aThr][Hyp][NMeA]A[Pro(4S-Me)]; ester 2-C)",1.56 µM,>200 µM,1.28 ± 0.03 µM,,0.195 µM,
"CC/C=C/C(=O)N[C@@H](Cc1cc(F)cc(F)c1)C(=O)N[C@@H]1C(=O)N2C[C@H](O)C[C@H]2C(=O)N2CCCC[C@H]2C(=O)N[C@@H](C)C(=O)N2C[C@H](C)C[C@H]2C(=O)O[C@H]1C [Compound 300] (X7-[Phe(3,5-F2)][aThr][Hyp][Pip]A[Pro(4R-Me)]; ester 2-C)",2.5 µM,>20 µM,0.44 ± 0.03 µM,,0.039 µM,
"CCCC/C=C/C(=O)N[C@@H](Cc1cc(F)cc(F)c1)C(=O)N[C@@H]1C(=O)N2C[C@H](O)C[C@H]2C(=O)N2CCCC[C@H]2C(=O)N[C@@H](C)C(=O)N2C[C@H](C)C[C@H]2C(=O)O[C@H]1C [Compound 301, (E)-N—((S)-3-(3,5-difluorophenyl)-1-(((2R,6S,8aS,14aS,16R,20S,21S,23aS)-16-hydroxy-2,6,21-trimethyl-5,8,14,19,23-pentaoxooctadecahydro-1H,5H,14H,19H-pyrido[2,1-i]dipyrrolo[2,1-c:2′,1′-l][1]oxa[4,7,10,13]tetraazacyclohexadecin-20-yl)amino)-1-oxopropan-2-yl)hept-2-enamide] ({Heptenoyl(2E)}-[Phe(3,5-F2)][aThr][Hyp][Pip]A[Pro(4R-Me)]; ester 2-C)",0.079 µM,>20 µM,0.42 ± 0.01 µM,,< 0.0098 µM,
"C[C@@H]1C[C@H]2C(=O)O[C@@H](C)[C@H](NC(=O)[C@H](Cc3cc(F)cc(F)c3)NC(=O)Nc3ccc4c(c3)CCC4)C(=O)N3CCC[C@H]3C(=O)N3CCCC[C@H]3C(=O)N[C@@H](C)C(=O)N2C1 [Compound 302, (S)-3-(3,5-difluorophenyl)-2-(3-(2,3-dihydro-1H-INDEN-5-yl)ureido)-N-((2R,6S,8aS,14aS,20S,21S,23aS)-2,6,21-trimethyl-5,8,14,19,23-pentaoxooctadecahydro-1H,5H,14H,19H-pyrido[2,1-i]dipyrrolo[2,1-c:2′,1′-l][1]oxa[4,7,10,13]tetraazacyclohexadecin-20-yl)propanamide] ({X4-CO}-[Phe(3,5-F2)][aThr]P[Pip]A[Pro(4R-Me)]; ester 2-C)",0.059 µM,>20 µM,0.48 ± 0.01 µM,,0.02 µM,
"Cc1cc(C)cc(NC(=O)N[C@@H](Cc2cc(F)cc(F)c2)C(=O)N[C@@H]2C(=O)N3CCC[C@H]3C(=O)N3CCCC[C@H]3C(=O)N[C@@H](C)C(=O)N3C[C@H](C)C[C@H]3C(=O)O[C@H]2C)c1 [Compound 304, (S)-3-(3,5-difluorophenyl)-2-(3-(3,5-dimethylphenyl)ureido)-N-((2R,6S,8aS,14aS,20S,21S,23aS)-2,6,21-trimethyl-5,8,14,19,23-pentaoxooctadecahydro-1H,5H,14H,19H-pyrido[2,1-i]dipyrrolo[2,1-c:2′,1′-l][1]oxa[4,7,10,13]tetraazacyclo-hexadecin-20-yl)propanamide] ({X6-CO}-[Phe(3,5-F2)][aThr]P[Pip]A[Pro(4R-Me)]; ester 2-C)",0.079 µM,>20 µM,,0.029 µM,,0.38 ± 0.01 µM
"C[C@@H]1C[C@H]2C(=O)O[C@@H](C)[C@H](NC(=O)[C@H](Cc3cc(F)cc(F)c3)NC(=O)Nc3ccc4c(c3)CCO4)C(=O)N3CCC[C@H]3C(=O)N3CCCC[C@H]3C(=O)N[C@@H](C)C(=O)N2C1 [Compound 305, (S)-3-(3,5-difluorophenyl)-2-(3-(2,3-dihydrobenzofuran-5-yl)ureido)-N-((2R,6S,8aS,14aS,20S,21S,23aS)-2,6,21-trimethyl-5,8,14,19,23-pentaoxooctadecahydro-1H,5H,14H,19H-pyrido[2,1-i]dipyrrolo[2,1-c:2′,1′-l][1]oxa[4,7,10,13]tetraazacyclo-hexadecin-20-yl)propanamide] ({X8-CO}-[Phe(3,5-F2)][aThr]P[Pip]A[Pro(4R-Me)]; ester 2-C)",0.24 µM,>20 µM,0.48 ± 0.02 µM,,0.029 µM,
"C[C@@H]1C[C@H]2C(=O)O[C@@H](C)[C@H](NC(=O)[C@H](Cc3cc(F)cc(F)c3)NC(=O)Nc3ccc(Cl)cc3F)C(=O)N3CCC[C@H]3C(=O)N3CCCC[C@H]3C(=O)N[C@@H](C)C(=O)N2C1 [Compound 307, (S)-2-(3-(4-chloro-2-fluorophenyl)ureido)-3-(3,5-difluorophenyl)-N-((2R,6S,8aS,14aS,20S,21S,23aS)-2,6,21-trimethyl-5,8,14,19,23-pentaoxooctadecahydro-1H,5H,14H,19H-pyrido[2,1-i]dipyrrolo[2,1-c:2′,1′-l][1]oxa[4,7,10,13]tetraazacyclo-hexadecin-20-yl)propanamide] ({NH(4-Cl-2-F-phenyl)-CO}-[Phe(3,5-F2)][aThr]P[Pip]A[Pro(4R-Me)]; ester 2-C)",< 0.02 µM,>20 µM,,< 0.02 µM,,0.44 ± 0.03 µM
"CCCC/C=C/C(=O)N[C@@H](Cc1cc(F)cc(F)c1)C(=O)N[C@@H]1C(=O)N2CCC[C@H]2C(=O)N(C)[C@@H]([C@@H](C)O)C(=O)N[C@@H](C)C(=O)N2C[C@H](C)C[C@H]2C(=O)O[C@H]1C [Compound 308, (E)-N—((S)-3-(3,5-difluorophenyl)-1-(((2R,6S,9S,11aS,17S,18S,20aS)-9-((R)-1-hydroxyethyl)-2,6,10,18-tetramethyl-5,8,11,16,20-pentaoxohexadecahydro-1H,5H,16H-dipyrrolo[2,1-c:2′,1′-l][1]oxa[4,7,10,13]tetraazacyclohexadecin-17-yl)amino)-1-oxopropan-2-yl)hept-2-enamide] ({Heptenoyl(2E)}-[Phe(3,5-F2)][aThr]P[NMeT]A[Pro(4R-Me)]; ester 2-C)",0.039 µM,>20 µM,0.28 ± 0.02 µM,0.039 µM,,
"CCCC/C=C/C(=O)N[C@@H](Cc1cc(F)cc(F)c1)C(=O)N[C@@H]1C(=O)N2C[C@H](O)C[C@H]2C(=O)N2CCOC[C@H]2C(=O)N[C@@H](C)C(=O)N2C[C@H](C)C[C@H]2C(=O)O[C@H]1C [Compound 309, (E)-N—((S)-3-(3,5-difluorophenyl)-1-(((6aS,8R,12S,13S,15aS,17R,21S,23aS)-8-hydroxy-13,17,21-trimethyl-6,11,15,20,23-pentaoxooctadecahydro-6H,11H,15H-[1,4]oxazino[3,4-i]dipyrrolo[2,1-c:2′,1′-l][1]oxa[4,7,10,13]tetraazacyclohexadecin-12-yl)amino)-1-oxopropan-2-yl)hept-2-enamide] ({Heptenoyl(2E)}-[Phe(3,5-F2)][aThr][Hyp][Morpholine(3S-CO)]A[Pro(4R-Me)]; ester 2-C)",0.625 µM,>20 µM,0.48 ± 0.02 µM,0.039 µM,,
